Source: patent US20070010671A1, “Novel quinazoline derivatives and methods of treatment related to the use thereof” (priority 2003, published 2007)
pIC50: −log10 of the molar value.

These compounds were tested against MCH receptor (Homo sapiens, UniProt Q99705) (assay: High throughput functional screening FLIPR/FDSS6000: inhibition of MCH-evoked intracellular Ca2+ changes). Settings: class by percent of control at 10^-7 M or by IC50; read-out: class.
Format: cell-based
Method in brief: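 Antagonism was measured as inhibition of calcium responses to 50 nM MCH, monitored 290 s at ex 488/em 530 nm on FLIPR or FDSS6000. Beforehand, cells bearing a constitutively active MCH receptor received Fluo4-AM (4 μM, 1 h, 37 °C) with probenecid, and test compound for 3 min.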

Row | SMILES | pIC50
1 | COc1cc(NC(=O)N[C@H]2CC[C@@H](Nc3nc(N(C)C)c4ccccc4n3)CC2)cc(OC)c1OC [compound 121, N-(cis-4-{[4-(dimethylamino)quinazolin-2-yl]amino}cyclohexyl)-N′-(3,4,5-trimethoxyphenyl)urea] | > 7.30
2 | CN(C)c1nc(N[C@H]2CC[C@@H](NC(=O)NCc3ccc(Cl)c(Cl)c3)CC2)nc2ccccc12 [compound 122, N-(3,4-dichlorobenzyl)-N′-(cis-4-{[4-(dimethylamino)quinazolin-2-yl]amino}cyclohexyl)urea] | 6.70 to 7.30
3 | CN(C)c1nc(N[C@H]2CC[C@@H](NC(=O)Nc3ccc(F)c(F)c3)CC2)nc2ccccc12 [compound 123, N-(3,4-difluorophenyl)-N′-(cis-4-{[4-(dimethylamino)quinazolin-2-yl]amino}cyclohexyl)urea] | 6.70 to 7.30
4 | COc1ccc(NC(=O)N[C@H]2CC[C@@H](Nc3nc(N(C)C)c4ccccc4n3)CC2)cc1OC [compound 124, N-(3,4-dimethoxyphenyl)-N′-(cis-4-{[4-(dimethylamino)quinazolin-2-yl]amino}cyclohexyl)urea] | > 7.30
5 | CN(C)c1nc(N[C@H]2CC[C@@H](NC(=O)Nc3cc(F)cc(F)c3)CC2)nc2ccccc12 [compound 125, N-(3,5-difluorophenyl)-N′-(cis-4-{[4-(dimethylamino)quinazolin-2-yl]amino}cyclohexyl)urea] | 6.70 to 7.30
6 | COc1cc(NC(=O)N[C@H]2CC[C@@H](Nc3nc(N(C)C)c4ccccc4n3)CC2)cc(OC)c1 [compound 126] | 6.70 to 7.30
7 | Cc1cc(C)cc(NC(=O)N[C@H]2CC[C@@H](Nc3nc(N(C)C)c4ccccc4n3)CC2)c1 [compound 127, N-(cis-4-{[4-(dimethylamino)quinazolin-2-yl]amino}cyclohexyl)-N′-(3,5-dimethylphenyl)urea] | 6.70 to 7.30
8 | COC(=O)c1cccc(NC(=O)N[C@H]2CC[C@@H](Nc3nc(N(C)C)c4ccccc4n3)CC2)c1 [compound 128, methyl 3-({[(cis-4-{[4-(dimethylamino)quinazolin-2-yl]amino}cyclohexyl)amino]carbonyl}amino)benzoate] | 6.70 to 7.30
9 | Cc1c(Cl)cccc1NC(=O)N[C@H]1CC[C@@H](Nc2nc(N(C)C)c3ccccc3n2)CC1 [compound 129] | > 7.30
10 | CN(C)c1nc(N[C@H]2CC[C@@H](NC(=O)Nc3ccc(F)c(Cl)c3)CC2)nc2ccccc12 [compound 130] | 6.70 to 7.30
11 | COc1ccc(NC(=O)N[C@H]2CC[C@@H](Nc3nc(N(C)C)c4ccccc4n3)CC2)cc1Cl [compound 131, N-(3-chloro-4-methoxyphenyl)-N′-(cis-4-{[4-(dimethylamino)quinazolin-2-yl]amino}cyclohexyl)urea] | > 7.30
12 | CCc1cccc(NC(=O)N[C@H]2CC[C@@H](Nc3nc(N(C)C)c4ccccc4n3)CC2)c1 [compound 132, N-(cis-4-{[4-(dimethylamino)quinazolin-2-yl]amino}cyclohexyl)-N′-(3-ethylphenyl)urea] | 6.70 to 7.30
13 | CN(C)c1nc(N[C@H]2CC[C@@H](NC(=O)Nc3cc(F)cc(C(F)(F)F)c3)CC2)nc2ccccc12 [compound 133] | < 6.70
14 | CN(C)c1nc(N[C@H]2CC[C@@H](NC(=O)NCc3cccc(F)c3)CC2)nc2ccccc12 [compound 134, N-(cis-4-{[4-(dimethylamino)quinazolin-2-yl]amino}cyclohexyl)-N′-(3-fluorobenzyl)urea] | 6.70 to 7.30
15 | CN(C)c1nc(N[C@H]2CC[C@@H](NC(=O)Nc3cccc([N+](=O)[O-])c3)CC2)nc2ccccc12 [compound 135] | < 6.70
16 | CN(C)c1nc(N[C@H]2CC[C@@H](NC(=O)Nc3ccc(C(F)(F)F)cc3)CC2)nc2ccccc12 [compound 136] | < 6.70
17 | CN(C)c1nc(N[C@H]2CC[C@@H](NC(=O)Nc3ccc(SC(F)(F)F)cc3)CC2)nc2ccccc12 [compound 137] | < 6.70
18 | Cc1cc(NC(=O)N[C@H]2CC[C@@H](Nc3nc(N(C)C)c4ccccc4n3)CC2)c([N+](=O)[O-])cc1C [compound 138] | < 6.70
19 | CN(C)c1nc(N[C@H]2CC[C@@H](NC(=O)Nc3ccc(OCc4ccccc4)cc3)CC2)nc2ccccc12 [compound 139] | < 6.70
20 | CN(C)c1nc(N[C@H]2CC[C@@H](NC(=O)Nc3ccc(Cc4ccccc4)cc3)CC2)nc2ccccc12 [compound 140] | < 6.70
21 | CN(C)c1nc(N[C@H]2CC[C@@H](NC(=O)Nc3ccc(Br)cc3C(F)(F)F)CC2)nc2ccccc12 [compound 141, N-[4-bromo-2-(trifluoromethyl)pheny]-N′-(cis-4-{[4-(dimethylamino)quinazolin-2-yl]amino}cyclohexyl)urea] | > 7.30
22 | CN(C)c1nc(N[C@H]2CC[C@@H](NC(=O)Nc3c(F)cc(Br)cc3F)CC2)nc2ccccc12 [compound 142, N-(4-bromo-2,6-difluorophenyl)-N′-(cis-4-{[4-(dimethylamino)quinazolin-2-yl]amino}cyclohexyl)urea] | > 7.30
23 | CN(C)c1nc(N[C@H]2CC[C@@H](NC(=O)Nc3ccc(Br)cc3Cl)CC2)nc2ccccc12 [compound 143] | < 6.70
24 | CN(C)c1nc(N[C@H]2CC[C@@H](NC(=O)NCc3ccc(Br)cc3)CC2)nc2ccccc12 [compound 144, N-(4-bromobenzyl)-N′-(cis-4-{[4-(dimethylamino)quinazolin-2-yl]amino}cyclohexyl)urea] | > 7.30

Row | SMILES | pIC50
25 | CN(C)c1nc(N[C@H]2CC[C@@H](NC(=O)Nc3ccc(Cl)cc3C(F)(F)F)CC2)nc2ccccc12 [compound 145, N-[4-chloro-2-(trifluoromethyl)phenyl]-N′-(cis-4-{[4-(dimethylamino)quinazolin-2-yl]amino}cyclohexyl)urea] | > 7.30
26 | Cc1cc(Cl)ccc1NC(=O)N[C@H]1CC[C@@H](Nc2nc(N(C)C)c3ccccc3n2)CC1 [compound 146] | > 7.30
27 | CN(C)c1nc(N[C@H]2CC[C@@H](NC(=O)Nc3ccc(Cl)cc3[N+](=O)[O-])CC2)nc2ccccc12 [compound 147] | < 6.70
28 | CN(C)c1nc(N[C@H]2CC[C@@H](NC(=O)Nc3ccc(Cl)c(C(F)(F)F)c3)CC2)nc2ccccc12 [compound 148] | < 6.70
29 | CN(C)c1nc(N[C@H]2CC[C@@H](NC(=O)Nc3ccc(C#N)cc3)CC2)nc2ccccc12 [compound 149, N-(4-cyanophenyl)-N′-(cis-4-{[4-(dimethylamino)quinazolin-2-yl]amino}cyclohexyl)urea] | > 7.30
30 | CCOc1ccc(NC(=O)N[C@H]2CC[C@@H](Nc3nc(N(C)C)c4ccccc4n3)CC2)cc1 [compound 150, N-(cis-4-{[4-(dimethylamino)quinazolin-2-yl]amino}cyclohexyl)-N′-(4-ethoxyphenyl)urea] | 6.70 to 7.30
31 | CN(C)c1nc(N[C@H]2CC[C@@H](NC(=O)Nc3ccccc3OC(F)(F)F)CC2)nc2ccccc12 [compound 152] | < 6.70
32 | CC(=O)c1cccc(NC(=S)N[C@H]2CC[C@@H](Nc3nc(N(C)C)c4ccccc4n3)CC2)c1 [compound 153] | < 6.70
33 | CC(=O)c1ccc(NC(=S)N[C@H]2CC[C@@H](Nc3nc(N(C)C)c4ccccc4n3)CC2)cc1 [compound 154] | < 6.70
34 | CN(C)c1nc(N[C@H]2CC[C@@H](NC(=S)Nc3cc(C(F)(F)F)cc(C(F)(F)F)c3)CC2)nc2ccccc12 [compound 155] | < 6.70
35 | CN(C)c1nc(N[C@H]2CC[C@@H](NC(=S)NCc3ccccc3)CC2)nc2ccccc12 [compound 156] | < 6.70
36 | CN(C)c1nc(N[C@H]2CC[C@@H](NC(=S)Nc3cccc(Br)c3)CC2)nc2ccccc12 [compound 157, N-(3-bromopheny)-N′-(cis-4-{[4-(dimethylamino)quinazolin-2-yl]amino}cyclohexyl)thiourea] | < 6.70
37 | CN(C)c1nc(N[C@H]2CC[C@@H](NC(=S)Nc3ccc(Br)cc3)CC2)nc2ccccc12 [compound 158, N-(4-bromophenyl)-N′-(cis-4-{[4-(dimethylamino)quinazolin-2-yl]amino}cyclohexyl)thiourea] | > 7.30
38 | CCCCNC(=S)N[C@H]1CC[C@@H](Nc2nc(N(C)C)c3ccccc3n2)CC1 [compound 159] | < 6.70
39 | CN(C)c1nc(N[C@H]2CC[C@@H](NC(=S)Nc3ccc(C#N)cc3)CC2)nc2ccccc12 [compound 160, N-(4-cyanophenyl)-N′-(cis-4-{[4-(dimethylamino)quinazolin-2-yl]amino}cyclohexyl)thiourea] | > 7.30
40 | CN(C)c1nc(N[C@H]2CC[C@@H](NC(=S)NC3CCCCC3)CC2)nc2ccccc12 [compound 161, N-cyclohexyl-N′-(cis-4-{[4-(dimethylamino)quinazolin-2-yl]amino}cyclohexyl)thiourea] | 6.70 to 7.30
41 | CN(C)c1nc(N[C@H]2CC[C@@H](NC(=S)NC3CCCC3)CC2)nc2ccccc12 [compound 162, N-cyclopentyl-N′-(cis-4-{[4-(dimethylamino)quinazolin-2-yl]amino}cyclohexyl)thiourea] | 6.70 to 7.30
42 | CN(C)c1nc(N[C@H]2CC[C@@H](NC(=S)Nc3cccc(Cl)c3)CC2)nc2ccccc12 [compound 163] | < 6.70
43 | CN(C)c1nc(N[C@H]2CC[C@@H](NC(=S)Nc3ccc(Cl)cc3)CC2)nc2ccccc12 [compound 164] | 6.70 to 7.30
44 | CN(C)c1nc(N[C@H]2CC[C@@H](NC(=S)Nc3ccc(Cl)cc3Cl)CC2)nc2ccccc12 [compound 165, N-(2,4-dichlorophenyl)-N′-(cis-4-{[4-(dimethylamino)quinazolin-2-yl]amino}cyclohexyl)thiourea] | > 7.30
45 | COc1ccc(NC(=S)N[C@H]2CC[C@@H](Nc3nc(N(C)C)c4ccccc4n3)CC2)c(OC)c1 [compound 166] | > 7.30
46 | CN(C)c1nc(N[C@H]2CC[C@@H](NC(=S)Nc3cc(F)ccc3F)CC2)nc2ccccc12 [compound 167] | < 6.70
47 | CN(C)c1nc(N[C@H]2CC[C@@H](NC(=S)Nc3cc(Cl)ccc3Cl)CC2)nc2ccccc12 [compound 168] | < 6.70
48 | Cc1cccc(C)c1NC(=S)N[C@H]1CC[C@@H](Nc2nc(N(C)C)c3ccccc3n2)CC1 [compound 169, N-(cis-4-{[4-(dimethylamino)quinazolin-2-yl]amino}cyclohexyl)-N′-(2,6-dimethylphenyl)thiourea] | > 7.30
